Test results published in ChEMBL document CHEMBL1130526, “Amide surrogates of matrix metalloproteinase inhibitors: Urea and sulfonamide mimics” (Bioorg Med Chem Lett, 1997).

What was measured:
[1] = biological target: 72 kDa type IV collagenase (Homo sapiens, UniProt P08253); test: Inhibition of Matrix metalloprotease-2 (MMP-2)
[2] = biological target: Matrix metalloproteinase-9 (Homo sapiens, UniProt P14780); test: Inhibition of Matrix metalloprotease-9
[3] = biological target: T1, Interstitial collagenase (Homo sapiens, UniProt P03956); test: Inhibition of Matrix metalloprotease-1 (MMP-1)
T1 sequence (P03956 whole entry): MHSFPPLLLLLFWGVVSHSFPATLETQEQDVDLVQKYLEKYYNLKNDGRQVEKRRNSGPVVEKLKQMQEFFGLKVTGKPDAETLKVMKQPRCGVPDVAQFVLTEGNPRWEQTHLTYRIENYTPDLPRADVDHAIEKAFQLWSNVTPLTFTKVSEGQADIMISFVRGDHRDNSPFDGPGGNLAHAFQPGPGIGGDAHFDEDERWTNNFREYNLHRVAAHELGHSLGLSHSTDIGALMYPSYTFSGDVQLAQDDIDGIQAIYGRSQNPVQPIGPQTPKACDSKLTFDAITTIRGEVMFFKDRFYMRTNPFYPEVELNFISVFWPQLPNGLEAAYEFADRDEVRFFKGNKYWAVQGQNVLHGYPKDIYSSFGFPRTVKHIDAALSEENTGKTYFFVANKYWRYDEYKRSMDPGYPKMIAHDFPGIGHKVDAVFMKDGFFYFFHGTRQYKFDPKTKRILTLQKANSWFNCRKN

[4] = biological target: T2, Stromelysin-1 (Homo sapiens, UniProt P08254); test: Inhibition of Matrix metalloprotease-3 (MMP-3)
Target sequence in this assay (P08254 whole entry): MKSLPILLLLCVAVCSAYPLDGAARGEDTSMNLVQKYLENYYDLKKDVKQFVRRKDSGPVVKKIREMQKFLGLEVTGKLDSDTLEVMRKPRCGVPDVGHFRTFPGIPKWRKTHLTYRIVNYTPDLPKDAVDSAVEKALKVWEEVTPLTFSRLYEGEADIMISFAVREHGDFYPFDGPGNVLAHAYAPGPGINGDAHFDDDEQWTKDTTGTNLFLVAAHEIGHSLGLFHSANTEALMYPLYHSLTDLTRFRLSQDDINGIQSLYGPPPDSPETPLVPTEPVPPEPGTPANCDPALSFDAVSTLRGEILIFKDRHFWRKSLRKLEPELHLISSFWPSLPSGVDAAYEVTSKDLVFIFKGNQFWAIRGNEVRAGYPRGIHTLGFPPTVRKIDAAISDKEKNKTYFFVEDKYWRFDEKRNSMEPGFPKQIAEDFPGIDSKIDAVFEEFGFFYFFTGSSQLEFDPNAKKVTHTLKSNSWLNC

[5] = biological target: T2, Stromelysin-1; test: Inhibition of Matrix metalloprotease-3 (MMP-3) at 50 uM
Target sequence in this assay (P08254 100-477 limits assumed): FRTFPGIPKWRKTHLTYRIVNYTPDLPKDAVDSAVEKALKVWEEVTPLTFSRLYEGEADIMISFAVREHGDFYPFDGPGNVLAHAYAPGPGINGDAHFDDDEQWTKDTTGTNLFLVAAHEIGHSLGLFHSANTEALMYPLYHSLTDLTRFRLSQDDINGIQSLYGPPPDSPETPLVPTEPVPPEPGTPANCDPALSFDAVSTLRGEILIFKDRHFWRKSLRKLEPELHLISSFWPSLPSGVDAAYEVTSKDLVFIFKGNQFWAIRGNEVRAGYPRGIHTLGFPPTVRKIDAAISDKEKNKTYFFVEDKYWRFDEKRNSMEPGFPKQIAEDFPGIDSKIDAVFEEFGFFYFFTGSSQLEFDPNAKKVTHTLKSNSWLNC

Chain of 72 kDa type IV collagenase (P08253 whole entry): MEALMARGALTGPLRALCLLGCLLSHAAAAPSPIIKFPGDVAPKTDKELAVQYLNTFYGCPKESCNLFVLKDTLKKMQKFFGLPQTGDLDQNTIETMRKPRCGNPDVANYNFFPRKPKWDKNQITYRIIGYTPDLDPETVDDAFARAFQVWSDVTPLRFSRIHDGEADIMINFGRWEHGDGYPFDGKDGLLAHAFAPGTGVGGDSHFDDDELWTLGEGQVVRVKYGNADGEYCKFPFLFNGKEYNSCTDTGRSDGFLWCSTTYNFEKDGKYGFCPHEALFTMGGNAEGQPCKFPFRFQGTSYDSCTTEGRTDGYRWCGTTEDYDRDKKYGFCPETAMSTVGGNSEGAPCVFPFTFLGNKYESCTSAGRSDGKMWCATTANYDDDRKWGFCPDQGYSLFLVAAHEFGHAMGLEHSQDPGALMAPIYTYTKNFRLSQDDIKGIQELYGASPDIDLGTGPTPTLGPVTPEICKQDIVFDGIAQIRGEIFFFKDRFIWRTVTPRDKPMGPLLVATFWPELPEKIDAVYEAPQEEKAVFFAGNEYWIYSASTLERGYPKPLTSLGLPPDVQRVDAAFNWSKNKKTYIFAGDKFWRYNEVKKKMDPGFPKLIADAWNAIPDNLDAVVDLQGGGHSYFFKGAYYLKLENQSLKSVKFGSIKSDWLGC
Chain of Matrix metalloproteinase-9 (P14780 whole entry): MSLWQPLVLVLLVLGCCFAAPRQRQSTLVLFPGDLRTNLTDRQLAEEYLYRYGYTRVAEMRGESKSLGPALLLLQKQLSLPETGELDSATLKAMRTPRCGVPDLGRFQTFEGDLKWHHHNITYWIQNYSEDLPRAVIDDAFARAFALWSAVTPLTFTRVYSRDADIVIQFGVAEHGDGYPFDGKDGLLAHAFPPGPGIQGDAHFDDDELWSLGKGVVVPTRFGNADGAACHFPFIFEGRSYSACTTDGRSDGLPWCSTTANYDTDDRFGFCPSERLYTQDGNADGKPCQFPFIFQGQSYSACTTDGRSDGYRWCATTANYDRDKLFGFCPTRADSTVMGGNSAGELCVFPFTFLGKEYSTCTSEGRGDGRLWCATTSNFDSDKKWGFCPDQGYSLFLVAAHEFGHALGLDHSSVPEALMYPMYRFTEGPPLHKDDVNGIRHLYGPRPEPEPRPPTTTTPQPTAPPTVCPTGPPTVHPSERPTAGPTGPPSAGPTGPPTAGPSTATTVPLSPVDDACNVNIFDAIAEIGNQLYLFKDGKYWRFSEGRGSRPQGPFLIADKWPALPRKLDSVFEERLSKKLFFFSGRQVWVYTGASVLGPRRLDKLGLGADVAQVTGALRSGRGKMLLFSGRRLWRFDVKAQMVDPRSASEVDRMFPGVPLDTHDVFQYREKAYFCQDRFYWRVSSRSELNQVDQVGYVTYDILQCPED

| Compound | Ki [1] | Ki [2] | Ki [3] | Ki [4] | inhibition [5] |
| --- | --- | --- | --- | --- | --- |
| CNC(=O)[C@H](Cc1ccc(OC)cc1)NC(=O)[C@@H](CC(=O)O)CC(C)C | 0.86 µM | 0.184 µM | 0.336 µM | 29.4 µM | – |
| CNC(=O)[C@H](Cc1ccc(OC)cc1)NS(=O)(=O)C(CCc1ccccc1)CC(=O)NO (stereo not given in full) | 0.55 µM | 1.5 µM | 0.64 µM | 2.2 µM | – |
| CNC(=O)[C@H](Cc1ccc(OC)cc1)NS(=O)(=O)C(CC(=O)NO)CC(C)C (stereo not given in full) | 0.62 µM | 0.62 µM | 0.77 µM | 4.1 µM | – |
| CNC(=O)[C@H](Cc1ccc(OC)cc1)NC(=O)[C@@H](CC(=O)NO)CC(C)C | – | < 0.01 µM | – | < 0.01 µM | – |
| CNC(=O)[C@H](Cc1ccc(OC)cc1)NS(=O)(=O)C(CCc1ccccc1)CC(=O)O (stereo not given in full) | 5.3 µM | 9.9 µM | 22.4 µM | – | 10% |

Further lines, results first:

| Ki [1] | Ki [2] | Ki [3] | Ki [4] | inhibition [5] | Compound |
| --- | --- | --- | --- | --- | --- |
| 1.3 µM | 0.29 µM | 11.2 µM | – | 10% | CCCCCCC(CC(=O)O)S(=O)(=O)N[C@@H](Cc1ccc(OC)cc1)C(=O)NC (stereo not given in full) |
| 3 µM | 19.2 µM | > 50 µM | 19.1 µM | – | CNC(=O)[C@H](Cc1ccc(OC)cc1)NS(=O)(=O)C(CC(=O)O)CC(C)C (stereo not given in full) |
| 0.43 µM | 0.21 µM | 2.3 µM | 4 µM | – | CCCCCCC(CC(=O)NO)S(=O)(=O)N[C@@H](Cc1ccc(OC)cc1)C(=O)NC (stereo not given in full) |
